Results taken from US10774051B2, “6-membered heterocyclic derivatives and pharmaceutical composition comprising the same” (Shionogi & Co., Ltd., priority 2015, dated 2020).

Each compound was assayed against human P2X7 receptor (Homo sapiens, UniProt Q99572, R270H/Y155H) (assay: Evaluation of human P2X7 receptor inhibitory activity (Yo-Pro uptake, BzATP stimulation, FLIPR TETRA)). Settings: 1321N1 cells stably expressing human P2X7 receptor; BzATP stimulation, Yo-Pro uptake; read-out: IC50 (antagonistic activity for the human P2X7 receptor).
Format: cell-based
Summary of the method: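 Yo-Pro dye uptake triggered by BzATP was monitored by FLIPR in human P2X7-transfected 1321N1 cells (SNP variant) in HEPES-buffered HBSS, pH 7.4-7.5. Compound was dispensed 8 min post-stimulation, then signal read for 20 min; IC50 derived logistically from inhibition of the fluorescence range.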
`COc1cn(Cc2ccsc2)c(Nc2cc(C)c(C)cc2C)nc1=O` [Compound I-0738] gave an IC50 of 3 nM.
Work on `COc1cn(Cc2ccc(F)c(Cl)c2)c(Nc2cc3c(cc2C)OCO3)nc1=O` [Compound I-0742] yielded an IC50 of 16 nM.
For `COc1cn(Cc2ccccc2)c(Nc2cc3nc(C)sc3cc2C)nc1=O` [Compound I-0744], the IC50 was 180 nM.

Same assay, conditions: antagonistic activity for the human P2X7 receptor; read-out: IC50
With `C=C(C)c1ccc(C)c(Nc2nc(=O)c(OC)cn2Cc2ccc(F)c(Cl)c2)c1` [Compound I-0723] the IC50 was 10 to 100 nM.
For `COc1cn(Cc2ccccc2)c(Nc2c(C)cccc2C)nc1=O` [Compound I-0724], the IC50 was 100 to 500 nM.
For `CCOc1ccc(Nc2nc(=O)c(OC)cn2Cc2cc(F)c(F)c(F)c2)c(C)c1` [Compound I-0725], the IC50 was less than 10 nM.
With `COc1cn(Cc2cc(F)cc(F)c2)c(Nc2cc3c(cc2C)OC(F)(F)O3)nc1=O` [Compound I-0726] the IC50 was 100 to 500 nM.
Compound `COc1cn(Cc2ccc(F)c(Cl)c2)c(Nc2cc3c(cc2C)OC(F)(F)O3)nc1=O` [Compound I-0727] has an IC50 of 100 to 500 nM.
`CCc1cc2c(cc1Nc1nc(=O)c(OC)cn1Cc1ccccc1)OC(F)(F)O2` [Compound I-0728] was tested, and the IC50 was 100 to 500 nM.
In the case of `CCc1cc2c(cc1Nc1nc(=O)c(OC)cn1Cc1cc(F)cc(F)c1)OC(F)(F)O2` [Compound I-0729], the IC50 is reported as 100 to 500 nM.
`CCc1cc2c(cc1Nc1nc(=O)c(OC)cn1Cc1ccc(F)c(Cl)c1)OC(F)(F)O2` [Compound I-0730] gave an IC50 of 10 to 100 nM.
Work on `COc1cn(Cc2ccccc2)c(Nc2cc(C(C)(C)O)ccc2C)nc1=O` [Compound I-0731] yielded an IC50 of 10 to 100 nM.
Work on `COc1cn(Cc2ccc(F)c(F)c2)c(Nc2cc(C(C)(C)O)ccc2C)nc1=O` [Compound I-0732] yielded an IC50 of 10 to 100 nM.
For `COc1cn(Cc2ccc(F)c(Cl)c2)c(Nc2cc(-c3ccnn3C)ccc2C)nc1=O` [Compound I-0733], the IC50 was 10 to 100 nM.
Work on `COc1cn(Cc2cc(F)cc(Cl)c2)c(Nc2cc(-c3ccnn3C)ccc2C)nc1=O` [Compound I-0734] yielded an IC50 of 10 to 100 nM.
`COc1cn(Cc2ccc(F)c(Cl)c2)c(Nc2cc(N3CCOCC3)ccc2C)nc1=O` [Compound I-0735] showed an IC50 of 10 to 100 nM.
`COc1cn(Cc2ccc(F)c(F)c2)c(Nc2cc(N3CCOCC3)ccc2C)nc1=O` [Compound I-0736] gave an IC50 of 10 to 100 nM.
In the case of `COc1cn(Cc2cc(F)cc(Cl)c2)c(Nc2cc(N3CCOCC3)ccc2C)nc1=O` [Compound I-0737], the IC50 is reported as 10 to 100 nM.
`COc1ccc(Nc2nc(=O)c(OC)cn2Cc2ccc(F)cc2)c(C)c1` [Compound I-0739] was tested, and the IC50 was 10 to 100 nM.
`COc1cn(Cc2ccccc2)c(Nc2cc(N3CCOCC3)ccc2C)nc1=O` [Compound I-0740] showed an IC50 of 100 to 500 nM.
Compound `COc1cn(Cc2cc(F)cc(F)c2)c(Nc2cc3c(cc2C)OCO3)nc1=O` [Compound I-0741] has an IC50 of 10 to 100 nM.
`CCc1cc2c(cc1Nc1nc(=O)c(OC)cn1Cc1cc(F)cc(F)c1)OCO2` [Compound I-0743] was tested, and the IC50 was 10 to 100 nM.
In the case of `COc1cn(Cc2cc(F)cc(F)c2)c(Nc2cc3nc(C)sc3cc2C)nc1=O` [Compound I-0745], the IC50 is reported as 100 to 500 nM.
`COc1cn(Cc2ccc(F)c(Cl)c2)c(Nc2cc3nc(C)sc3cc2C)nc1=O` [Compound I-0746] was tested, and the IC50 was 10 to 100 nM.
With `C=C(C)c1ccc(C)c(Nc2nc(=O)c(OC)cn2Cc2ccc(F)c(F)c2)c1` [Compound I-0747] the IC50 was 10 to 100 nM.
`C=C(C)c1ccc(C)c(Nc2nc(=O)c(OC)cn2Cc2cc(F)cc(Cl)c2)c1` [Compound I-0748] was tested, and the IC50 was 10 to 100 nM.
In the case of `C=C(C)c1ccc(C)c(Nc2nc(=O)c(OC)cn2Cc2cc(F)cc(F)c2)c1` [Compound I-0749], the IC50 is reported as 10 to 100 nM.
`COc1cn(Cc2ccccc2)c(Nc2cc(-c3cscn3)ccc2C)nc1=O` [Compound I-0750] gave an IC50 of 10 to 100 nM.
In the case of `COc1cn(Cc2ccc(F)c(F)c2)c(Nc2cc(-c3cscn3)ccc2C)nc1=O` [Compound I-0751], the IC50 is reported as less than 10 nM.
`COc1cn(Cc2cc(F)cc(Cl)c2)c(Nc2cc(-c3cscn3)ccc2C)nc1=O` [Compound I-0752] gave an IC50 of 10 to 100 nM.
Work on `COc1cn(Cc2cc(F)cc(F)c2)c(Nc2cc(-c3cscn3)ccc2C)nc1=O` [Compound I-0753] yielded an IC50 of less than 10 nM.
`COc1cn(Cc2ccccc2)c(Nc2cc(S(C)(=O)=O)cc(C)c2C)nc1=O` [Compound I-0754] was tested, and the IC50 was 10 to 100 nM.
